Assays:
[1] = target: human recombinant ATM (ataxia telangiectasia mutated) kinase (Homo sapiens (Human), UniProt Q13315); assay: ATM kinase assay, determination of ATM inhibition (IC50 ATM), TR-FRET; assay type: biochemical; conditions: 10 μM ATP, p53 substrate
Protocol: ATM Kinase Assay—Determination of ATM Inhibition (IC50 ATM):
The IC50 value was determined with the aid of a biochemical ATM kinase assay. The assay consists of two steps: the enzymatic reaction and the detection step. Firstly, ATM (ataxia telangiectasia mutated) protein and the test substance are incubated at different concentrations with addition of substrate protein p53 and ATP. ATM mediates the phosphorylation of p53 at several positions, including at amino acid S15. The amount of phosphorylated p53 is determined with the aid of specific antibodies and the TR-FRET technique. The enzymatic ATM assay is carried out as TR-FRET (HTRF™, Cisbio Bioassays) based 384-well assay. In the first step, purified human recombinant ATM (human ATM, full length, GenBank ID NM_000051, expressed in a mammal cell line) is incubated in assay buffer for 15 minutes with the ATM inhibitor in various concentrations and without test substance as negative or neutral control. The assay buffer comprises 25 mM HEPES pH 8.0, 10 mM Mg(CH3COO)2, 1 mM MnCl2, 0.1% BSA and 0.01% Brij® 35, 5 mM dithiothreitol (DTT). […] After incubation, usually for 2 hours (between 1.5 and 15 h), for signal development, the plates are analysed in a plate reader (EnVision, PerkinElmer) using TRF mode (and with laser excitation). […]

PI3K p110β/p85α (human) = PI3K p110β/p85α (human) (Homo sapiens (Human), UniProt P42338); assay: PI3K p110β/p85α (human), non-radioactive assay (HTRF); assay type: biochemical; conditions: ATM versus PI3Kbeta
Protocol: PI3K p110β/p85α (Human), Non-Radioactive Assay
(§1) PI3K p110β/p85α (human) was incubated in an assay buffer comprising 10 μM phosphatidylinositol 4,5-bisphosphate and MgATP (concentration as necessary). The reaction was initiated by addition of MgATP solution. After an incubation time of 30 min at room temperature, the reaction was stopped by addition of a solution consisting of EDTA and biotinylated phosphatidylinositol 3,4,5-trisphosphate. Finally, the detection buffer, consisting of a europium-labelled anti-GST monoclonal antibody, a GST-labelled GRP1 PH domain and streptavidin allophycocyanin, was added. The plate was read out via homogeneous time-resolved fluorescence (HTRF) and the corresponding signals were evaluated via the formula HTRF=10000×(Em665 nm/Em620 nm).

mTOR (human) = mTOR (human) (Homo sapiens (Human), UniProt P42345); assay: mTOR (human) radiometric kinase assay; assay type: biochemical; conditions: ATM versus mTOR
Protocol: Furthermore, the effect, in particular inhibition, of other kinases and thus the selectivity of the compounds according to the invention can be determined with the aid of the following assay:
mTOR (human) was incubated with 50 mM HEPES pH 7.5, 1 mM EGTA, 0.01% Tween 20, 2 mg/ml of the substrate, 3 mM MnCl2 and [γ-^33P-ATP] (specific activity approximately 500 cpm/pmol, concentration as necessary). The reaction was initiated by addition of MgATP solution. After incubation at room temperature for 40 minutes, the reaction was stopped by addition of 3% phosphoric acid. 10 μl of the reaction solution were then transferred dropwise onto a P30 filtermat and washed three times for 5 min in 75 mM phosphoric acid and once in methanol, dried and evaluated by means of liquid scintillation counting.

[2] = system: phosphorylation of CHK2 (Thr68) in HCT116 cells; assay: Cellular pCHK2 assay, bleomycin-induced phosphorylation of CHK2 (phospho-Thr68), immunofluorescence high content; assay type: cell-based, human; conditions: 10 μM bleomycin, 4 h
Text: For the identification of substances which inhibit the phosphorylation of the protein kinase CHK2 at the amino acid threonine 68, an immunofluorescence-based “high content” analysis assay was used in HCT116 cells.
In vitro cell-based immunofluorescence assay for the identification of inhibitors of bleomycin-induced phosphorylation of CHK2 (phospho-Thr68) in the human colon carcinoma cell line HCT116:
HCT116 cells are sown out in a defined cell density in 384-well plates in culture medium (DMEM high glucose, 2 mM GlutaMax, 1 mM Na pyruvate, 10% FCS) and incubated overnight at 37° C. and 10% of CO2. […] After incubation for four hours at 37° C. and 10% of CO2, the cells are fixed (5 min, 4% formaldehyde in PBS), permeabilised (10 min, 0.2% Triton X-100 in PBS) and, after blocking of nonspecific binding sites (10% goat serum, 1% BSA in PBS), incubated overnight at 4° C. with a specific anti-pCHK2 antibody (cell signalling #2661). pCHK2 (Thr68) is determined using an Alexa488-labelled secondary anti-rabbit IgG antibody. […] The pCHK2 signal is detected using a high-content imager (Molecular Devices IMX Ultra) and automatic image analysis using the MetaXpress software belonging to the instrument. The number of cell nuclei which have a pCHK2 signal above a defined background is determined.

PI3K (p120γ) (human) = PI3K (p120γ) (human) (Homo sapiens (Human), UniProt P48736); assay: PI3K (p120γ) (human), non-radioactive assay (HTRF); assay type: biochemical; conditions: ATM versus PI3Kgamma
Protocol: PI3K (p120γ) (Human), Non-Radioactive Assay
as §1, with “(p120γ)” for “p110β/p85α”, “nm). • MgATP=magnesium 5′-O-[hydroxy({[(hydroxyphosphinato)oxy]phosphinato}oxy)phosphoryl]adenosine • MgCl2=magnesium dichloride • EGTA=ethylene glycol bis(aminoethyl ether) N,N,N′,N′-tetraacetic acid • Tween 20=polysorbate 20 Medicament/Pharmaceutical Composition” for “nm).”

PI3K p110δ/p85α (human) = PI3K p110δ/p85α (human) (Homo sapiens (Human), UniProt O00329); assay: PI3K p110δ/p85α (human), non-radioactive assay (HTRF); assay type: biochemical; conditions: ATM versus PI3Kdelta
Protocol: PI3K p110δ/p85α (Human), Non-Radioactive Assay
as §1, with “p110δ/p85α” for “p110β/p85α”

PI3K p110α/p85α (human) = PI3K p110α/p85α (human) (Homo sapiens (Human), UniProt P42336); assay: PI3K p110α/p85α (human), non-radioactive assay (HTRF); assay type: biochemical; conditions: ATM versus PI3Kalpha
Protocol: PI3K p110α/p85α (Human), Non-Radioactive Assay
as §1, with “p110α/p85α” for “p110β/p85α”, “After” for “After an”, “incubation” for “incubation time of 30 min”, “temperature for 40 minutes,” for “temperature,”

PI3K (p120γ) (human), sequence (P48736 whole entry): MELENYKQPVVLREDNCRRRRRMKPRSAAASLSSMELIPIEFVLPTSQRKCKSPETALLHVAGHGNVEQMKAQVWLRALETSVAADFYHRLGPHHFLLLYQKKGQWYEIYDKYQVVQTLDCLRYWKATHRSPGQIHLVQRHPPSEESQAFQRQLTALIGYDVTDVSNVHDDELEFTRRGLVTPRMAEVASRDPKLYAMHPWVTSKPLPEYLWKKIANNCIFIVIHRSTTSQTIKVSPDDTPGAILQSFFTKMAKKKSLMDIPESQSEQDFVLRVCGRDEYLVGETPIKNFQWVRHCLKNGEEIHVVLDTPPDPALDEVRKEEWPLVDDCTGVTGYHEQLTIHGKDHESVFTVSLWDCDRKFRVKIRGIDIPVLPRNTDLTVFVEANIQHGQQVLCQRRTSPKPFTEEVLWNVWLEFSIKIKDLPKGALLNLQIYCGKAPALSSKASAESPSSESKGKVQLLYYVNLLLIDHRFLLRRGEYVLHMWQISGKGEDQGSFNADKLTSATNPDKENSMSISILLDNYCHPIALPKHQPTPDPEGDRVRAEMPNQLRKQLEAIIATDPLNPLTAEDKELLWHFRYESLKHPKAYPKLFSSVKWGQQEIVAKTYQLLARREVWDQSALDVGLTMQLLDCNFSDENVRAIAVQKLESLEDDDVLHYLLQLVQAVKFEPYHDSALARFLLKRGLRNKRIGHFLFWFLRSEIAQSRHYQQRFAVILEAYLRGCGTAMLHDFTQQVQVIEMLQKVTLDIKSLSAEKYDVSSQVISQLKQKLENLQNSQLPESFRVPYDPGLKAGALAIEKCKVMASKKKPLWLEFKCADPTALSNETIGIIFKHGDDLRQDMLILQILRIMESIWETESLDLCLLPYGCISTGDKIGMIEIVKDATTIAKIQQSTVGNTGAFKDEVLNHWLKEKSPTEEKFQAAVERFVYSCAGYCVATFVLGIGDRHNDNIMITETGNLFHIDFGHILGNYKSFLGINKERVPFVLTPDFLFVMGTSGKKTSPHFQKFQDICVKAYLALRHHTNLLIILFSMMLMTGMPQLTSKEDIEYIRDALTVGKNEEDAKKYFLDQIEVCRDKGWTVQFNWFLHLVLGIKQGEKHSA
PI3K p110δ/p85α (human), sequence (O00329 whole entry): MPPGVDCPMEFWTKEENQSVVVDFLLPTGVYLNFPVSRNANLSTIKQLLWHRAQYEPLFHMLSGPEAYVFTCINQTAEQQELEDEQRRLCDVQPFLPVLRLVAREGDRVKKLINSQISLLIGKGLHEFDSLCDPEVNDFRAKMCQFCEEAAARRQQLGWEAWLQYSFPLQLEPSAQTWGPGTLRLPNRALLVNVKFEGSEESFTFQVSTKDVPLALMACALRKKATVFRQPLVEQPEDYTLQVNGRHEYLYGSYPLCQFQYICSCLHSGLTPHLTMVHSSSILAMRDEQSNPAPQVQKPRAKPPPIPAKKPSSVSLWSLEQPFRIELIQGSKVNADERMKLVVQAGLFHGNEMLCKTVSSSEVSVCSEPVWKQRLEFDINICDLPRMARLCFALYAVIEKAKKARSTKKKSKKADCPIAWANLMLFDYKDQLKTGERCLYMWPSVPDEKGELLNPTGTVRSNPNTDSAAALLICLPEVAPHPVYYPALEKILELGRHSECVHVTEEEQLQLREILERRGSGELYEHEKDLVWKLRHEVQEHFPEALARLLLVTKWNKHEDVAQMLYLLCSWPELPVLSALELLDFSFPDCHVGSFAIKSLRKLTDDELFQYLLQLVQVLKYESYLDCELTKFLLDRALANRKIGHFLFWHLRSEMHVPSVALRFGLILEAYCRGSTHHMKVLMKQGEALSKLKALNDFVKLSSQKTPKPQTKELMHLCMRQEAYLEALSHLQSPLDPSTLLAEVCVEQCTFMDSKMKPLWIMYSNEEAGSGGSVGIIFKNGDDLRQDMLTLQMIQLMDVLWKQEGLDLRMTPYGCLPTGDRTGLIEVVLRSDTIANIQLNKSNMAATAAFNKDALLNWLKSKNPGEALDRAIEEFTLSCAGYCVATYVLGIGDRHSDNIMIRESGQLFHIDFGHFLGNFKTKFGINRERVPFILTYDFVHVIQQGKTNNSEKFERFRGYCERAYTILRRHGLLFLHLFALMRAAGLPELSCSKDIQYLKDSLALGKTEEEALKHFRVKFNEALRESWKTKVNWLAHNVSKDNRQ
PI3K p110δ/p85α (human), sequence (P27986 whole entry partner): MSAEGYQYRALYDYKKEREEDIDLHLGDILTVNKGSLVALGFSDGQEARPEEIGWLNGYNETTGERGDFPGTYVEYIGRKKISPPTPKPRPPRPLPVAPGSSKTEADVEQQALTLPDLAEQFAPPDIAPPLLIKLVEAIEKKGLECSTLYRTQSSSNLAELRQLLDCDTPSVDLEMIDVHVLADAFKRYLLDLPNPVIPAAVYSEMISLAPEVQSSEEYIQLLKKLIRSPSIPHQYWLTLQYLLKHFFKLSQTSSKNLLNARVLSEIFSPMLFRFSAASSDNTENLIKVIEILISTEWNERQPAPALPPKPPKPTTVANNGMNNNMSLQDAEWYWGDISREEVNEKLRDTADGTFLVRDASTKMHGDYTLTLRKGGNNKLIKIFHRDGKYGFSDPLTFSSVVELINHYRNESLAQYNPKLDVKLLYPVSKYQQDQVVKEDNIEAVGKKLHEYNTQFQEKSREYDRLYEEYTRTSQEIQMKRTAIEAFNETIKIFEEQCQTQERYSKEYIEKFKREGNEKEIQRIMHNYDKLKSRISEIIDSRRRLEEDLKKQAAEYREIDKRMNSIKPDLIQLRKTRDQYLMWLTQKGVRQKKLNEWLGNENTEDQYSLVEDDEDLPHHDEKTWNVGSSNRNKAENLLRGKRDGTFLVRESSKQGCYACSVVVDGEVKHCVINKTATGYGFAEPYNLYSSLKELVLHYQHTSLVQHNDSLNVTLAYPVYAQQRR
PI3K p110α/p85α (human), sequence (P42336 whole entry): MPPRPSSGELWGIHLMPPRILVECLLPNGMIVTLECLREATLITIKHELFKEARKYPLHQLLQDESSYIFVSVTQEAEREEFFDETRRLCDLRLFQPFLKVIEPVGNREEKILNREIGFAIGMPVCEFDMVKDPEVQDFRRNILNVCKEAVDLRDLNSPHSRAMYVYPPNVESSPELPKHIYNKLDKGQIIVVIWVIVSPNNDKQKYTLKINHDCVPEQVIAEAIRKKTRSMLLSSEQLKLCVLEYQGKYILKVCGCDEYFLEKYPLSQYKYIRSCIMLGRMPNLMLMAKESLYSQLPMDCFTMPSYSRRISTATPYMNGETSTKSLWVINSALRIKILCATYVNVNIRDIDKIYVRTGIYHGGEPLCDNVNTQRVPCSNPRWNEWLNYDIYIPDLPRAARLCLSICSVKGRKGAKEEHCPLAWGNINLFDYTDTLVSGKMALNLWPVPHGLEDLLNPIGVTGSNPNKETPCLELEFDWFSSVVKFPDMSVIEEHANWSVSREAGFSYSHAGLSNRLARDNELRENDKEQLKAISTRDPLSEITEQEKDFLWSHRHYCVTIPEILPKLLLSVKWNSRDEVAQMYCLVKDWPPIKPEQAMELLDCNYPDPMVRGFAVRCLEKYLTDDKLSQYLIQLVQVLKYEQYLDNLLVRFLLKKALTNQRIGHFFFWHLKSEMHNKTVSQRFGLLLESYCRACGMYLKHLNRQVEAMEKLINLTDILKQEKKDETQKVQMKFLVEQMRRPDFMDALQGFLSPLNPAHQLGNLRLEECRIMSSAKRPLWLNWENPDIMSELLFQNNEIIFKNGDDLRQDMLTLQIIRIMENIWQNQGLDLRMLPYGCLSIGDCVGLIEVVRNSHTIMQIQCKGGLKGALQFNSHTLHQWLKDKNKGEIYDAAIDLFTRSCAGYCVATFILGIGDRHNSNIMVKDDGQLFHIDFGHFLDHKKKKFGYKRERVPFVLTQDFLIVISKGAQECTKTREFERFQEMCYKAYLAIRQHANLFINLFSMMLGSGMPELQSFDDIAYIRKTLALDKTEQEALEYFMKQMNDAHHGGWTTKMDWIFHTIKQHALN
PI3K p110α/p85α (human), sequence (P27986 whole entry partner): as the sequence (P27986 whole entry partner) above
PI3K p110β/p85α (human), sequence (P42338 whole entry): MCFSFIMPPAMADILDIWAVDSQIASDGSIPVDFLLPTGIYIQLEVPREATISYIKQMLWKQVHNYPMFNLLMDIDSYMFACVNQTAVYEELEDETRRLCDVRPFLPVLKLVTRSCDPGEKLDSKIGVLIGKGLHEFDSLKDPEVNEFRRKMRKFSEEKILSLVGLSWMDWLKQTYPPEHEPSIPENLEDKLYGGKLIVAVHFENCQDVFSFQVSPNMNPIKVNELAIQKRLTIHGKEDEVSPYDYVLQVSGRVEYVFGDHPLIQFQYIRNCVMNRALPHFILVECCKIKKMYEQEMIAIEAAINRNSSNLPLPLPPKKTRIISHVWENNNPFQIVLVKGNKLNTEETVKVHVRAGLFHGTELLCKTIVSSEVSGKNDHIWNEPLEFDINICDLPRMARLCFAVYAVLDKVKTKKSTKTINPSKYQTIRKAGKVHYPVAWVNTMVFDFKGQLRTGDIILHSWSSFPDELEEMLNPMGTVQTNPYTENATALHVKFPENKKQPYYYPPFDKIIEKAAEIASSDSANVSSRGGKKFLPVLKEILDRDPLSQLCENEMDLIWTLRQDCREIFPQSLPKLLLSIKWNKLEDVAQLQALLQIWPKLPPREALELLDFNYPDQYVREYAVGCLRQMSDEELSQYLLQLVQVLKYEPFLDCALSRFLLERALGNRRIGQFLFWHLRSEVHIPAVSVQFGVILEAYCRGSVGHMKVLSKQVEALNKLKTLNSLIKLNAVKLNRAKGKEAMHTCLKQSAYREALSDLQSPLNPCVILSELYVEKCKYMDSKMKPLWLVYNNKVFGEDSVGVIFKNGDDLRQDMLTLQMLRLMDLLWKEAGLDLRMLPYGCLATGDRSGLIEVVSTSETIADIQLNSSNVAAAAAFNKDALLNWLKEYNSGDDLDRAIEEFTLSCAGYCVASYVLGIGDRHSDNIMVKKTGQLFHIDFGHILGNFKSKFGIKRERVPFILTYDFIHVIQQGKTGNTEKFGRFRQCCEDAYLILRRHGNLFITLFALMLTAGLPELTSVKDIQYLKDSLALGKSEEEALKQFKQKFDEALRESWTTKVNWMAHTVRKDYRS
PI3K p110β/p85α (human), sequence (P27986 whole entry partner): as the sequence (P27986 whole entry partner) above

Row | ratio of IC50 (ATM) and IC50 (PI3Kalpha), selectivity with respect to PI3Kalpha (PI3K p110α/p85α (human)) | Compound | IC50 [1] | ratio IC50 (ATM):IC50 (PI3Kbeta), selectivity with respect to PI3Kbeta (PI3K p110β/p85α (human)) | ratio IC50 (ATM):IC50 (mTOR), selectivity with respect to mTOR (mTOR (human)) | IC50 [2] | ratio of IC50 (ATM) and IC50 (PI3Kgamma), selectivity with respect to PI3Kgamma (PI3K (p120γ) (human)) | ratio of IC50 (ATM) and IC50 (PI3Kdelta), selectivity with respect to PI3Kdelta (PI3K p110δ/p85α (human))
1 | – | 1-(3,5-Dimethyl-1H-pyrazol- 4-yl)-7-methoxy-3-methyl-8- (1-methyl-1H-pyrazol-4-yl)- 1,3-dihydroimidazo[4,5-c]- quinolin-2-one [Example 118] | < 10 nM | at least 2000 times | at least 2000 times | 200 to 1000 nM | – | –
2 | at least 2000 times | COc1cc2ncc3[nH]c(=O)n(-c4ncc(F)cc4F)c3c2cc1-c1cn(C)nc1C [Example 108, 1-(3,5-Difluoropyridin-2-yl)-8-(1,3-dimethyl-1H-pyrazol-4-yl)-7-methoxy-1,3-dihydroimidazo[4,5-c]-quinolin-2-one] | – | at least 2000 times | – | – | at least 2000 times | at least 2000 times
3 | at least 2000 times | CCc1cncc(F)c1-n1c(=O)n(C)c2cnc3cc(OC)c(-c4cn[nH]n4)cc3c21 [Example 125, 1-(3-Ethyl-5-fluoropyridin-4-yl)-7-methoxy-3-methyl-8-(2H-1,2,3-triazol-4-yl)-1,3-dihydroimidazo[4,5-c] quinolin-2-one] | – | at least 2000 times | at least 2000 times | – | at least 2000 times | at least 2000 times
4 | – | COc1cc2ncc3c(c2cc1-c1ccc2nc(C)[nH]c2c1)n(-c1c(F)cncc1OC)c(=O)n3C [Example 136, 1-(3-Fluoro-5-methoxy-pyridin-4-yl)-7-methoxy-3-methyl-8-(2-methyl-3H-benzoimidazol-5-yl)-1,3-dihydroimidazo[4,5-c]-quinolin-2-one] | – | at least 2000 times | at least 2000 times | – | at least 2000 times | –
5 | – | [2H]C([2H])([2H])Oc1cncc(F)c1-n1c(=O)n(C)c2cnc3cc(OC)c(-c4cnn(C)c4)cc3c21 [Example 145, 1-[3-Fluoro-5-(trideuterio-methoxy)-4-pyridyl]-7-methoxy-3-methyl-8-(1-methylpyrazol-4-yl)imidazo-[4,5-c]quinolin-2-one] | – | at least 2000 times | at least 2000 times | – | at least 2000 times | at least 2000 times
6 | – | COc1ccc(-c2cc3c(cc2OC)ncc2c3n(-c3cn(C)nc3F)c(=O)n2C)cn1 [Example 159, 1-(3-Fluoro-1-methyl-1H-pyrazo1-4-yl)-7-methoxy-8-(6-methoxypyridin-3-yl)-3-methyl-1,3-dihydroimidazo-[4,5-c]quinolin-2-one] | – | at least 2000 times | at least 2000 times | – | – | –

Row | Compound | ratio of IC50 (ATM) and IC50 (PI3Kalpha), selectivity with respect to PI3Kalpha (PI3K p110α/p85α (human)) | IC50 [1] | ratio IC50 (ATM):IC50 (PI3Kbeta), selectivity with respect to PI3Kbeta (PI3K p110β/p85α (human)) | ratio IC50 (ATM):IC50 (mTOR), selectivity with respect to mTOR (mTOR (human)) | IC50 [2] | ratio of IC50 (ATM) and IC50 (PI3Kgamma), selectivity with respect to PI3Kgamma (PI3K (p120γ) (human)) | ratio of IC50 (ATM) and IC50 (PI3Kdelta), selectivity with respect to PI3Kdelta (PI3K p110δ/p85α (human))
7 | COc1cc2ncc3c(c2cc1-c1cnn(C)c1)n(-c1ncc(OCS(C)(=O)=O)cc1F)c(=O)n3C [Example 201, 1-(3-Fluoro-5-methyl-sulfonylmethoxypyridin-2-yl)-7-methoxy-3-methyl-8-(1-methyl-1H-pyrazol-4-yl)-1,3-dihydroimidazo[4,5-c]-quinolin-2-one] | at least 2000 times | – | at least 2000 times | at least 2000 times | – | at least 2000 times | at least 2000 times

Source: patent US11608338B2, “Imidazolonylquinolines and the use thereof as ATM kinase inhibitors” (priority 2015, dated 2023)
